Each structure is given as a SMILES string. Like-named read-outs stand apart in the source and are kept apart here.

We go through 13 molecules from patent US9434711B2 (Janssen Pharmaceutica, NV, priority 2007, dated 2016).

The target of this test is canine TRPM8 (Canis lupus familiaris, UniProt Q1A7N1). Description: In Vitro Canine TRPM8 Functional Assay (Ca2+ fluorescence, icilin activation). It counts as cell-based. As to conditions: for IC50: HEK293 cells stably expressing canine TRPM8, icilin activation, eight-point dose-response, read-out: IC50; for inhibition at 0.2 µM: read-out: % Inh @ 0.2; for inhibition at 0.5 µM: compound at 0.5 μM, read-out: % Inh @ 0.5. Summed up:
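Eight-point dose-response curves, each point averaging quadruplicate wells, gave EC50 or IC50. Canine TRPM8-expressing HEK293 cells, dye-loaded (Calcium 3), were pre-exposed 5 min to compound, then challenged with icilin at roughly EC80; intracellular Ca2+ read by FLIPR or FDSS fluorescence.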

[1] abbreviates: compound at 0.2 μM, canine TRPM8, icilin activation.
The mark [2] stands for this setting: canine TRPM8, icilin activation.

Chain of canine TRPM8 (Q1A7N1 1-1104): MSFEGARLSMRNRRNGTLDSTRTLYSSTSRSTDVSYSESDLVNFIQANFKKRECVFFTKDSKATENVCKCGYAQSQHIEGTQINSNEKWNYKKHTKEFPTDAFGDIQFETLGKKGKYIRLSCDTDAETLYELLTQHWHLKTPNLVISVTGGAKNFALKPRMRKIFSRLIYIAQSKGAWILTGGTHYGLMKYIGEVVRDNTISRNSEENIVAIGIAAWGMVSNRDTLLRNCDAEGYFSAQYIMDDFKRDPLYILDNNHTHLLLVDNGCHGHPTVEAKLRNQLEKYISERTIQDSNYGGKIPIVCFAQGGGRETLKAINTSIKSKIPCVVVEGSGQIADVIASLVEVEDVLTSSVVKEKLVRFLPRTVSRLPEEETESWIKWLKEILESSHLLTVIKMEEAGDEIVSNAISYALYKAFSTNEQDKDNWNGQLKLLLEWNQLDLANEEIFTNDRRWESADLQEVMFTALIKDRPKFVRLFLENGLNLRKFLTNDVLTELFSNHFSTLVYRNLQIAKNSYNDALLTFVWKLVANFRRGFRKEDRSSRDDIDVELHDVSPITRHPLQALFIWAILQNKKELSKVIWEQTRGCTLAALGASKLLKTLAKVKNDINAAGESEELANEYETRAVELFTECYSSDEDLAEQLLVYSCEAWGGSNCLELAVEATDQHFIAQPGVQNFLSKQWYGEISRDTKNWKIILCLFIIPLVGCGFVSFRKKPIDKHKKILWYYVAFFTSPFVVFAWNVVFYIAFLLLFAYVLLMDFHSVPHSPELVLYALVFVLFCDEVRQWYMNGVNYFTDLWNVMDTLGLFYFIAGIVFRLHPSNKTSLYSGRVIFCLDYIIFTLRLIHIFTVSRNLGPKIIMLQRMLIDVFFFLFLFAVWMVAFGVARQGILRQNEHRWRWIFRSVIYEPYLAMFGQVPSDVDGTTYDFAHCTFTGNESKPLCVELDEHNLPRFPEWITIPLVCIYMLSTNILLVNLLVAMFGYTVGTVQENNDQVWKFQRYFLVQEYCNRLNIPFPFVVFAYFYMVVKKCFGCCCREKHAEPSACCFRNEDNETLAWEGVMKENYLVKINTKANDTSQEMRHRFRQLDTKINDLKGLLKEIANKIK

As a reminder, the IC50 is the concentration needed to halve the response being measured. With `CC(C)c1c(N(CCCCC(F)(F)F)S(=O)(=O)c2ccc(C(=O)O)cc2)sc2ccccc12` [Compound 568, N-(5,5,5-Trifluoro-pentyl)-N-(3-isopropyl-benzo[b]thiophen-2-yl)-4-carboxy-benzenesulfonamide], the IC50 is 2.4 nM. Also, the inhibition at 0.2 µM under setting [1] amounted to 104%.

Take `O=C(O)c1ccc(S(=O)(=O)N(Cc2ccc(F)c(C(F)(F)F)c2)c2sc3ccccc3c2Br)c(F)c1` [Compound 711, N-(3-Bromo-benzo[b]thiophen-2-yl)-N-(4-fluoro-3-trifluoromethyl-benzyl)-2-fluoro-4-carboxy-benzenesulfonamide]: the 50% inhibitory concentration (IC50) amounted to 2 nM. The inhibition at 0.2 µM under setting [1] worked out at 102%.

`Cc1c(N(Cc2ccc(F)c(F)c2)S(=O)(=O)c2ccc(O)cc2)sc2ccccc12` [Compound 285, N-(3,4-Difluoro-benzyl)-N-(3-methyl-benzo[b]thiophen-2-yl)-4-hydroxy-benzenesulfonamide]: the IC50 stood at 2.5 nM. Also, the inhibition at 0.5 µM under setting [2] is 100%.

In the case of `COC(=O)[C@@H](C)CN(c1sc2ccccc2c1C)S(=O)(=O)c1ccccc1` [Compound 94, N-(3-Methyl-benzo[b]thiophen-2-yl)-N-[2(S)-methyl-2-carbomethoxy-ethyl]-benzenesulfonamide], the IC50 came out at 18 nM. The inhibition at 0.2 µM under setting [1] was 98%.

In the case of `Cc1c(N(CC2CC2)S(=O)(=O)c2ccccc2)sc2ccccc12` [Compound 97, N-(Cyclopropylmethyl)-N-(3-methyl-benzo[b]thiophen-2-yl)-benzenesulfonamide], the IC50 stood at 14 nM. Also, under setting [1], the inhibition at 0.2 µM was determined as 96%.

Take `O=C(O)c1ccc(S(=O)(=O)N(Cc2ccc(F)c(C(F)(F)F)c2)c2sc3ccccc3c2C2CCCC2)cc1` [Compound 502, N-(3-Cyclopentyl-benzo[b]thiophen-2-yl)-N-(4-fluoro-3-trifluoromethyl-benzyl)-4-carboxy-benzenesulfonamide]: the IC50 was 10 nM. Besides, the inhibition at 0.2 µM under setting [1] came out at 100%.

Regarding `O=c1[nH]c(-c2ccc(S(=O)(=O)N(CCC3CC3)c3cc4ccccc4s3)cc2)ns1` [Compound 642, N-(Benzo[b]thiophen-2-yl)-N-(cyclopropyl-ethyl)-4-(5-oxo-4,5-dihydro-[1,2,4]thiadiazol-3-yl)-benzenesulfonamide], the IC50 stood at 41 nM. Further, the inhibition at 0.2 µM under setting [1] is 90%.

With `O=S(=O)(c1ccccc1)N(CC1CCCCC1)c1cc2ccccc2s1` [Compound 118, N-(Benzo[b]thiophen-2-yl)-N-(cyclohexylmethyl)-benzenesulfonamide], the IC50 was found to be 48 nM. Further, the inhibition at 0.5 µM under setting [2] was 100%.

With `CS(=O)(=O)Nc1c(Cl)cc(S(=O)(=O)N(CCC(F)(F)F)c2sc3ccccc3c2Cl)cc1Cl` [Compound 681, 3,5-Dichloro-N-(3-chloro-benzo[b]thiophen-2-yl)-4-methanesulfonylamino-N-(3,3,3-trifluoro-propyl)-benzenesulfonamide], the IC50 stood at 67.4 nM. Further, under setting [1], the inhibition at 0.2 µM is 93.3%.

In the case of `O=S(=O)(c1ccccc1)N(Cc1ccc(F)c(F)c1)c1cc2ccccc2s1` [Compound 1, N-Benzo[b]thiophen-2-yl-N-(3,4-difluoro-benzyl)-benzenesulfonamide], the IC50 was 24 nM. The inhibition at 0.5 µM under setting [2] turned out to be 100%.

Turning to `Cc1c(N(Cc2ccc(OC(F)(F)F)cc2)S(=O)(=O)c2ccc(-c3noc(=O)[nH]3)nc2)sc2ccccc12` [Compound 808], the inhibition at 0.2 µM (0.2 μM compound, HEK293 cells stably expressing canine TRPM8, icilin activation) was 102%.

As for `Cc1c(N(Cc2ccc(F)c(F)c2)S(=O)(=O)c2cc3ccccc3s2)sc2ccccc12` [Compound 18, N-(3,4-Difluoro-benzyl)-N-(3-methyl-benzo[b]thiophen-2-yl)-benzo[b]thiophene-2-sulfonamide], the IC50 was 81 nM. In addition, the inhibition at 0.5 µM under setting [2] was determined as 94%.

In the case of `Cc1c(N(Cc2cccc3cccnc23)S(=O)(=O)c2cc3ccccc3s2)sc2ccccc12` [Compound 19, N-(3-Methyl-benzo[b]thiophen-2-yl)-N-(quinolin-8-ylmethyl)-benzo[b]thiophene-2-sulfonamide], under setting [2], the inhibition at 0.5 µM stood at 58%.
